# Laboratory results as given in patent US4337199A, “Antibiotic β-lactam compounds, production thereof, and their use as antimicrobial agent” (Sanraku-Ocean Co., Ltd., priority 1978, dated 1982).
# Tests used:
# Experiment in all cases: minimum inhibitory concentration, agar dilution assay
# Assay type in all cases: cell-based
# [1] = tested on: Alcaligenes faecalis A 1; details: A1, agar dilution, 35° C., 20 hours, read-out: minimum inhibitory concentration
# Method: (§1) The antibiotic activities shown in Tables I-1 to I-8 above were determined in the following manner.
# (§2) The minimum inhibitory concentrations of the compounds of formula (I-a-1) or (I-b-1) in Tables I-1 to I-7 and the known compounds in Table I-8 on the various microorganisms shown in the above tables were measured by an agar dilution assay method using a brain heart infusion agar medium "Difco" (a product of Difco Laboratories Inc.)
# (§3) A sample of the test compound was dissolved in sterile distilled water and diluted to prepare a two-fold dilution series of the compound solution. In a petri plate of 9 cm diameter, 1 ml of the compound solution was added to 9 ml of molten sterile heart infusion agar medium (Difco Laboratories Inc.) at about 60° C. to prepare the compound-containing agar plate. An overnight culture of each test organism indicated in the above table which was prepared by stationary cultivation in Trypto-Soy broth (Eiken Chemi. Co., Ltd.) at 35° C. for 18 to 20 hours, was diluted with the Trypto-Soy broth to give approximately 10^8 cells/ml and the diluted inoculum was inoculated onto the compound-containing agar plates. After cultivating the plates at 35° C. for 20 hours, the growth of the organism was observed. The minimum concentration of the compound at which no growth of the microorganism was noted was determined, and defined as the minimum inhibitory concentration of the test compound.
# [2] = tested on: Bacillus subtilis ATCC 6633; details: ATCC6633, agar dilution, 35° C., 20 hours, read-out: minimum inhibitory concentration
# Method: as §1, §2, §3
# [3] = tested on: Citrobacter freundii GN 346; details: GN346, agar dilution, 35° C., 20 hours, read-out: minimum inhibitory concentration
# Method: as §1, §2, §3
# [4] = tested on: Comamonas terrigena B-996; details: B996, agar dilution, 35° C., 20 hours, read-out: minimum inhibitory concentration
# Method: as §1, §2, §3
# [5] = tested on: Enterobacter aerogenes E19; details: Klebsiella aerogenes, E19; agar dilution, 35° C., 20 hours; read-out: minimum inhibitory concentration
# Method: as §1, §2, §3
# [6] = tested on: Enterobacter cloacae 45; details: Enterobacter cloacae, 45; agar dilution, 35° C., 20 hours; read-out: minimum inhibitory concentration
# Method: as §1, §2, §3
# [7] = tested on: Enterobacter sp. E8; details: SP.E8, agar dilution, 35° C., 20 hours, read-out: minimum inhibitory concentration
# Method: as §1, §2, §3
# [8] = tested on: Escherichia coli K-12; details: K12, agar dilution, 35° C., 20 hours, read-out: minimum inhibitory concentration
# Method: as §1, §2, §3
# [9] = tested on: Escherichia coli RGN 823; details: RGN823, agar dilution, 35° C., 20 hours, read-out: minimum inhibitory concentration
# Method: as §1, §2, §3
# [10] = tested on: Klebsiella pneumoniae K-13; details: K13, agar dilution, 35° C., 20 hours, read-out: minimum inhibitory concentration
# Method: as §1, §2, §3
# [11] = tested on: Proteus mirabilis P6; details: P6, agar dilution, 35° C., 20 hours, read-out: minimum inhibitory concentration
# Method: as §1, §2, §3
# [12] = tested on: Proteus rettgeri P7; details: Providencia rettgeri, P7; agar dilution, 35° C., 20 hours; read-out: minimum inhibitory concentration
# Method: as §1, §2, §3
# [13] = tested on: Proteus sp. P22; details: agar dilution, 35° C., 20 hours; read-out: minimum inhibitory concentration
# Method: as §1, §2, §3
# [14] = tested on: Proteus vulgaris GN76; details: GN76, agar dilution, 35° C., 20 hours, read-out: minimum inhibitory concentration
# Method: as §1, §2, §3
# [15] = tested on: Providencia sp. P8; details: SP.P8, agar dilution, 35° C., 20 hours, read-out: minimum inhibitory concentration
# Method: as §1, §2, §3
# [16] = tested on: Pseudomonas aeruginosa IFO3445; details: IFO3445, agar dilution, 35° C., 20 hours, read-out: minimum inhibitory concentration
# Method: as §1, §2, §3
# [17] = tested on: Pseudomonas aeruginosa NCTC10490; details: NCTC10490, agar dilution, 35° C., 20 hours, read-out: minimum inhibitory concentration
# Method: as §1, §2, §3
# [18] = tested on: Sarcina lutea; details: Micrococcus luteus; agar dilution, 35° C., 20 hours; read-out: minimum inhibitory concentration
# Method: as §1, §2, §3
# [19] = tested on: Serratia marcescens S18; details: S18, agar dilution, 35° C., 20 hours, read-out: minimum inhibitory concentration
# Method: as §1, §2, §3
# [20] = tested on: Serratia marcescens T55; details: T55, agar dilution, 35° C., 20 hours, read-out: minimum inhibitory concentration
# Method: as §1, §2, §3
# [21] = tested on: Staphylococcus aureus FDA 209P; details: FDA209P, agar dilution, 35° C., 20 hours, read-out: minimum inhibitory concentration
# Method: as §1, §2, §3
# [22] = tested on: Staphylococcus aureus Russell; details: agar dilution, 35° C., 20 hours, read-out: minimum inhibitory concentration
# Method: as §1, §2, §3
# [23] = tested on: Staphylococcus aureus Smith; details: agar dilution, 35° C., 20 hours, read-out: minimum inhibitory concentration
# Method: as §1, §2, §3
# [24] = tested on: Staphylococcus epidermidis; details: agar dilution, 35° C., 20 hours, read-out: minimum inhibitory concentration
# Method: as §1, §2, §3
MIC [1] [µg/mL],MIC [2] [µg/mL],MIC [3] [µg/mL],MIC [4] [µg/mL],MIC [5] [µg/mL],MIC [6] [µg/mL],MIC [7] [µg/mL],MIC [8] [µg/mL],MIC [9] [µg/mL],MIC [10] [µg/mL],MIC [11] [µg/mL],MIC [12] [µg/mL],MIC [13] [µg/mL],MIC [14] [µg/mL],MIC [15] [µg/mL],MIC [16] [µg/mL],MIC [17] [µg/mL],MIC [18] [µg/mL],MIC [19] [µg/mL],MIC [20] [µg/mL],SMILES,further results
25,6.25,> 100,0.05,> 100,> 100,100,50,50,> 100,100,> 100,> 100,> 100,50,25,6.25,0.05,> 100,> 100,CC(O)[C@H]1C(=O)N2C(C(=O)O)=C(Sc3ccccc3)C[C@H]12 (stereo partly drawn),MIC [21]: 0.05 µg/mL; MIC [22]: 0.78 µg/mL; MIC [23]: 1.56 µg/mL; MIC [24]: 0.39 µg/mL
1.56,0.013,100,< 0.007,12.5,12.5,3.13,3.13,25,> 100,12.5,100,> 100,> 100,3.13,50,50,< 0.007,100,100,CC(O)C1C(=O)N2C(C(=O)O)=C(Sc3ccccc3)CC12 (stereo not drawn),MIC [21]: < 0.007 µg/mL; MIC [22]: 0.013 µg/mL; MIC [23]: 0.1 µg/mL; MIC [24]: 0.013 µg/mL
0.39,0.013,50,0.013,> 100,> 100,12.5,6.25,3.13,25,3.13,3.13,12.5,12.5,1.56,25,25,0.013,25,> 100,"CC(C)C1C(=O)N2C(C(=O)O)=C(Sc3ncccn3)CC12 (stereo not drawn) [Example 62, 3-(2-Pyrimidinylthio)-6-isopropyl-7-oxo-1-azabicyclo[3.2.0]hept-2-ene-2-carboxylic acid]",MIC [21]: 0.007 µg/mL; MIC [22]: 0.013 µg/mL; MIC [23]: 0.025 µg/mL; MIC [24]: 0.05 µg/mL
0.39,0.013,0.78,0.013,0.39,1.56,0.2,0.2,6.25,25,3.13,6.25,100,25,0.78,25,25,0.013,12.5,12.5,"CC(O)C1C(=O)N2C(C(=O)O)=C(SCCO)CC12 (stereo not drawn) [R1 --OH**, R21 --CH2 CH2 OH]",MIC [21]: 0.013 µg/mL; MIC [22]: 0.2 µg/mL; MIC [23]: 0.1 µg/mL; MIC [24]: 0.2 µg/mL
